Source: ChEMBL document CHEMBL5058649, “Data for DCP probe BAY 1816032” (2022)
Active and inactive are the calls of the source. The rule behind the calls is not given here.

Tests used:
[1] = target: D(2) dopamine receptor (Homo sapiens) (UniProt P14416); details: Compound concentration 10.0 uM
[2] = target: Homeodomain-interacting protein kinase 3 (Homo sapiens) (UniProt Q9H422); assay: HIPK3 DiscoveRx kinase panel; details: Compound concentration 1.0 uM
[3] = target: Insulin-like growth factor 1 receptor (Homo sapiens) (UniProt P08069); assay: IGF1R DiscoveRx kinase panel; details: Compound concentration 1.0 uM
[4] = target: Serine/threonine-protein kinase mTOR (Homo sapiens) (UniProt P42345); assay: MTOR DiscoveRx kinase panel; details: Compound concentration 1.0 uM
[5] = target: Serine/threonine-protein kinase RIO1 (Homo sapiens) (UniProt Q9BRS2); assay: RIOK1 DiscoveRx kinase panel; details: Compound concentration 1.0 uM
[6] = target: Serine/threonine-protein kinase B-raf (Homo sapiens) (UniProt P15056); assay: BRAF DiscoveRx kinase panel; details: Compound concentration 1.0 uM
[7] = target: Serine/threonine-protein kinase Nek4 (Homo sapiens) (UniProt P51957); assay: NEK4 DiscoveRx kinase panel; details: Compound concentration 1.0 uM
[8] = target: Serine/threonine-protein kinase 4 (Homo sapiens) (UniProt Q13043); assay: MST1 DiscoveRx kinase panel; details: Compound concentration 1.0 uM
[9] = target: ATP-sensitive inward rectifier potassium channel 11 (Cricetulus griseus) (UniProt A0A3L7HHE1); assay: Inhibition of Potassium Channel [KATP] at 10 µM in the Eurofins-Panlabs radioligand binding assay (Eurofins_assay_265600); details: Cricetinae; Compound concentration 10.0 uM
[10] = test system: MDA-MB-453; assay: MDA-MB-453 cell line Proliferation assay; assay type: functional, Homo sapiens; details: time 4 day
[11] = test system: SK-BR-3; assay: SK-BR-3 cell line Proliferation assay; assay type: functional, Homo sapiens; details: time 4 day
[12] = target: Cyclin-dependent kinase 5 (Homo sapiens) (UniProt Q00535); assay: CDK5 DiscoveRx kinase panel; details: Compound concentration 1.0 uM
[13] = target: Serine/threonine-protein kinase 16 (Homo sapiens) (UniProt O75716); assay: STK16 DiscoveRx kinase panel; details: Compound concentration 1.0 uM
Serine/threonine-protein kinase 16 (Homo sapiens), sequence (O75716 whole entry): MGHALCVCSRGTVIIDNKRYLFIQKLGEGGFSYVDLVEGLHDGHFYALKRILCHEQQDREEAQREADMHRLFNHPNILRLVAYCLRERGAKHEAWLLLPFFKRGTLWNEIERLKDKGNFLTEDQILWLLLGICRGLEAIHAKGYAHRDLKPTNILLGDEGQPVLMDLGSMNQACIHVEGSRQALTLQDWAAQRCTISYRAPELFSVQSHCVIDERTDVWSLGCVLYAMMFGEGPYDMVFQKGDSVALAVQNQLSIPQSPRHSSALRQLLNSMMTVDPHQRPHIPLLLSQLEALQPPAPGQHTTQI

[14] = target: Androgen receptor (Homo sapiens) (UniProt P10275); details: Compound concentration 10.0 uM
[15] = target: Mitogen-activated protein kinase 10 (Homo sapiens) (UniProt P53779); assay: JNK3 DiscoveRx kinase panel; details: Compound concentration 1.0 uM
Mitogen-activated protein kinase 10 (Homo sapiens), sequence (P53779 whole entry): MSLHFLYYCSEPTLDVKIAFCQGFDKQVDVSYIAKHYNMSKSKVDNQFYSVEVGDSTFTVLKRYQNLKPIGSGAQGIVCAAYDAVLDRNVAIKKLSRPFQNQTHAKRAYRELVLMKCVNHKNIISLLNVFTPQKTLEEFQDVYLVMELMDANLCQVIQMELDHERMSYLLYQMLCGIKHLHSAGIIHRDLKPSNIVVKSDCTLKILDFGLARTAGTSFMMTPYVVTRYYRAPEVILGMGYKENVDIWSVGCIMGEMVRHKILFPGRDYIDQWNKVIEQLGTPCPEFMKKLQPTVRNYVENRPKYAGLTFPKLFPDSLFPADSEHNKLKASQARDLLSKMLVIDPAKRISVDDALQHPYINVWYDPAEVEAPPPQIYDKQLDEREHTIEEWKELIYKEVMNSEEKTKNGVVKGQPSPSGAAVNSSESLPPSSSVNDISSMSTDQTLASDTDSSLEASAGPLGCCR

[16] = target: Interferon-induced, double-stranded RNA-activated protein kinase (Homo sapiens) (UniProt P19525); assay: PRKR DiscoveRx kinase panel; details: Compound concentration 1.0 uM
[17] = target: Serine/threonine-protein kinase NLK (Homo sapiens) (UniProt Q9UBE8); assay: NLK DiscoveRx kinase panel; details: Compound concentration 1.0 uM
[18] = target: Cyclin-dependent kinase 14 (Homo sapiens) (UniProt O94921); assay: PFTK1 DiscoveRx kinase panel; details: Compound concentration 1.0 uM
[19] = target: Muscarinic acetylcholine receptor M1 (Homo sapiens) (UniProt P11229); assay: Muscarinic M1 Eurofins-Panlabs radioligand binding assay; details: Compound concentration 10.0 uM
[20] = target: RAC-beta serine/threonine-protein kinase (Homo sapiens) (UniProt P31751); assay: AKT2 DiscoveRx kinase panel; details: Compound concentration 1.0 uM
[21] = target: Activated CDC42 kinase 1 (Homo sapiens) (UniProt Q07912); assay: TNK2 DiscoveRx kinase panel; details: Compound concentration 1.0 uM
[22] = target: Myosin light chain kinase family member 4 (Homo sapiens) (UniProt Q86YV6); assay: MYLK4 DiscoveRx kinase panel; details: Compound concentration 1.0 uM
[23] = target: CDK4/Cyclin D3 (Homo sapiens) (UniProt P11802+P30281); assay: CDK4-cyclinD3 DiscoveRx kinase panel; assay type: protein-complex assay; details: Compound concentration 1.0 uM
[24] = target: Serine/threonine-protein kinase Sgk1 (Homo sapiens) (UniProt O00141); assay: SGK DiscoveRx kinase panel; details: Compound concentration 1.0 uM
[25] = target: Serine/threonine-protein kinase Nek2 (Homo sapiens) (UniProt P51955); assay: NEK2 DiscoveRx kinase panel; details: Compound concentration 1.0 uM
Serine/threonine-protein kinase Nek2 (Homo sapiens), sequence (P51955 whole entry): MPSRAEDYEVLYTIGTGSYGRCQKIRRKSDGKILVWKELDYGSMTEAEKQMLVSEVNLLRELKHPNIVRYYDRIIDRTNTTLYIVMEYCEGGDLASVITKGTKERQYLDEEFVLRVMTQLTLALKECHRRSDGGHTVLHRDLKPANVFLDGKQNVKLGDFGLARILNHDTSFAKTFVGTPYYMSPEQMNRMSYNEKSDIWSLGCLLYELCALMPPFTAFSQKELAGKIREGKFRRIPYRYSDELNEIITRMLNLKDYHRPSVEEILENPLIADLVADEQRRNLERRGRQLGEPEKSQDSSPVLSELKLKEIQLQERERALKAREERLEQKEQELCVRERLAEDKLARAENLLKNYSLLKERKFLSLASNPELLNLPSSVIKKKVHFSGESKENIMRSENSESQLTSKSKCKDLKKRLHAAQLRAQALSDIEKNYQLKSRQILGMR

[26] = target: Serine/threonine-protein kinase DCLK3 (Homo sapiens) (UniProt Q9C098); assay: DCAMKL3 DiscoveRx kinase panel; details: Compound concentration 1.0 uM
[27] = target: T1, Mitotic checkpoint serine/threonine-protein kinase BUB1 (Homo sapiens, UniProt O43683); assay: BUB1 DiscoveRx kinase panel
[28] = target: 5'-AMP-activated protein kinase catalytic subunit alpha-2 (Homo sapiens) (UniProt P54646); assay: AMPK-alpha2 DiscoveRx kinase panel; details: Compound concentration 1.0 uM
[29] = target: Phosphatidylinositol 5-phosphate 4-kinase type-2 gamma (Homo sapiens) (UniProt Q8TBX8); assay: PIP5K2C DiscoveRx kinase panel; details: Compound concentration 1.0 uM
Phosphatidylinositol 5-phosphate 4-kinase type-2 gamma (Homo sapiens), sequence (Q8TBX8 whole entry): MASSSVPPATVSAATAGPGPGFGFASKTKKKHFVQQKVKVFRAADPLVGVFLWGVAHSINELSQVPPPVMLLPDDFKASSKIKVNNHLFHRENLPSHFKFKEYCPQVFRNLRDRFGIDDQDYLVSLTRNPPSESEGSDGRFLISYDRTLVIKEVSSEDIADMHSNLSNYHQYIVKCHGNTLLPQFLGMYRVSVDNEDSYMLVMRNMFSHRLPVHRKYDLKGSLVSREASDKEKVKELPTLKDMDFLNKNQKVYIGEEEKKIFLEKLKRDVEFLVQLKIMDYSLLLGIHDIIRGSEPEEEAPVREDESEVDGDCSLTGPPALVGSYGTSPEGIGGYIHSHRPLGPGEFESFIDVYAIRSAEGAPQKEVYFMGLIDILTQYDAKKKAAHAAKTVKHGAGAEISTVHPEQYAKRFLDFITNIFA

[30] = target: Dual specificity protein kinase CLK2 (Homo sapiens) (UniProt P49760); assay: CLK2 DiscoveRx kinase panel; details: Compound concentration 1.0 uM
[31] = target: Tyrosine-protein kinase CSK (Homo sapiens) (UniProt P41240); assay: CSK DiscoveRx kinase panel; details: Compound concentration 1.0 uM
Tyrosine-protein kinase CSK (Homo sapiens), sequence (P41240 2-450 limits assumed): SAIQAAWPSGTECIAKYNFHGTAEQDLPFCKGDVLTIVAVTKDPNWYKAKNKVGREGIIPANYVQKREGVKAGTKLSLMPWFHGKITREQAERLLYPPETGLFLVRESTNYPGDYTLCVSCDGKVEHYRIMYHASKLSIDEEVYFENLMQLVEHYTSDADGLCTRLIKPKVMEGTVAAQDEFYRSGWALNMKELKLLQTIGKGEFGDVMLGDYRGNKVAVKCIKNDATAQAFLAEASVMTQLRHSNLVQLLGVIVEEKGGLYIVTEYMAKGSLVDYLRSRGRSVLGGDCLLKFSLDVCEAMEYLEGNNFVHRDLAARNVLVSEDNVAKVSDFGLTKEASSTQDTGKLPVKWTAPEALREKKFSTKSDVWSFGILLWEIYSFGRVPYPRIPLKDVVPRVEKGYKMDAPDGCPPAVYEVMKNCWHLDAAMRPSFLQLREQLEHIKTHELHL

[32] = target: cGMP-dependent protein kinase 2 (Homo sapiens) (UniProt Q13237); assay: PRKG2 DiscoveRx kinase panel; details: Compound concentration 1.0 uM
[33] = target: Serine/threonine-protein kinase WNK4 (Homo sapiens) (UniProt Q96J92); assay: WNK4 DiscoveRx kinase panel; details: Compound concentration 1.0 uM
Serine/threonine-protein kinase WNK4 (Homo sapiens), sequence (Q96J92 whole entry): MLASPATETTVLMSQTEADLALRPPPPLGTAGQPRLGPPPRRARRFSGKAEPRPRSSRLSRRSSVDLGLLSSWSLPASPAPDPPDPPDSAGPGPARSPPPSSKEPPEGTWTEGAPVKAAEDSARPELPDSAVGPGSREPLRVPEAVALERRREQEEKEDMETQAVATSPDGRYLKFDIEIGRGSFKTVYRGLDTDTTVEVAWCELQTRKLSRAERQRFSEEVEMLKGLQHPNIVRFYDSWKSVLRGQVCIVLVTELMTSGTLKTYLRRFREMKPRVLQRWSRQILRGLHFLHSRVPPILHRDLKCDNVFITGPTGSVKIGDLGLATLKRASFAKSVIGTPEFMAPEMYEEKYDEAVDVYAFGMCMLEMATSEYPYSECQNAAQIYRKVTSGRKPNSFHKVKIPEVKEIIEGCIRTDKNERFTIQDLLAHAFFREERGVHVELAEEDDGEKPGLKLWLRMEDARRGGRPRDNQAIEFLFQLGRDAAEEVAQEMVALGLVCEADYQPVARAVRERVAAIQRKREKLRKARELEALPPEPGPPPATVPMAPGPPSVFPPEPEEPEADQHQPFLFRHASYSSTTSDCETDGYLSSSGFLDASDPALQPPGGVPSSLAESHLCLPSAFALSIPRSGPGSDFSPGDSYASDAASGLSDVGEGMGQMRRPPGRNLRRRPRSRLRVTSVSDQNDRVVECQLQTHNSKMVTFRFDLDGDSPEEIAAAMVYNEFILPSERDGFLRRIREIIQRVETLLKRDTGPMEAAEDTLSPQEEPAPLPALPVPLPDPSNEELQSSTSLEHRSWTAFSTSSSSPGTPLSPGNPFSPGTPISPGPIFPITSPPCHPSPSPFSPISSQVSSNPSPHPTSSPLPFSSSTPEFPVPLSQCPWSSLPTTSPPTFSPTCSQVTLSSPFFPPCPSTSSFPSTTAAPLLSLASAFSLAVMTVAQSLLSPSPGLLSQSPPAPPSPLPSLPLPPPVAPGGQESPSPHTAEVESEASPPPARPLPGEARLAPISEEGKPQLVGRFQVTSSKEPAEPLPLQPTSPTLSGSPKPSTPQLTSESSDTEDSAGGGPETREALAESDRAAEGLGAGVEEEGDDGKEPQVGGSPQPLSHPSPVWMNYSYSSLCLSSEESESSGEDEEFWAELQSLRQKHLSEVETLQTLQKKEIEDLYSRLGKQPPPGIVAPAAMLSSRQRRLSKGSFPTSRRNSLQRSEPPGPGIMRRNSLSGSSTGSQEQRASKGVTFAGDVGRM

[34] = target: Serine/threonine-protein kinase PAK 2 (Homo sapiens) (UniProt Q13177); assay: PAK2 DiscoveRx kinase panel; details: Compound concentration 1.0 uM
[35] = target: L-type calcium channel, dihydropyridine site (Cav1.2 alpha-1C) (Homo sapiens, UniProt Q13936); assay: Inhibition of Calcium Channel L-Type, Dihydropyridine at 10 µM in the Eurofins-Panlabs radioligand binding assay (Eurofins_assay_214600); parameters: ligand concentration 0.1 nM, non-specific ligand with concentration 1 µM Nitrendipine, incubation time 90 min, incubation temperature 25 °C; details: Wistar, rat, rat cerebral cortex preparation, probe [3H] Nitrendipine; compound concentration 10 uM; target entry is the homologue from another species
[36] = PHKG2 DiscoveRx kinase panel; details: Homo sapiens; Compound concentration 1.0 uM
[37] = target: Serine/threonine-protein kinase 17A (Homo sapiens) (UniProt Q9UEE5); assay: DRAK1 DiscoveRx kinase panel; details: Compound concentration 1.0 uM
[38] = target: Vascular endothelial growth factor receptor 1 (Homo sapiens) (UniProt P17948); assay: FLT1 DiscoveRx kinase panel; details: Compound concentration 1.0 uM
[39] = target: Serine/threonine-protein kinase Nek11 (Homo sapiens) (UniProt Q8NG66); assay: NEK11 DiscoveRx kinase panel; details: Compound concentration 1.0 uM
[40] = target: Beta-1 adrenergic receptor (Homo sapiens) (UniProt P08588); details: Compound concentration 10.0 uM
[41] = target: Ribosomal protein S6 kinase alpha-3 (Homo sapiens) (UniProt P51812); assay: RSK2(Kin.Dom.1-N-terminal) DiscoveRx kinase panel; details: Compound concentration 1.0 uM
[42] = target: Tyrosine-protein kinase Fyn (Homo sapiens) (UniProt P06241); assay: FYN DiscoveRx kinase panel; details: Compound concentration 1.0 uM
[43] = target: Serine/threonine-protein kinase Chk2 (Homo sapiens) (UniProt O96017); assay: CHEK2 DiscoveRx kinase panel; details: Compound concentration 1.0 uM
Serine/threonine-protein kinase Chk2 (Homo sapiens), sequence (O96017 whole entry): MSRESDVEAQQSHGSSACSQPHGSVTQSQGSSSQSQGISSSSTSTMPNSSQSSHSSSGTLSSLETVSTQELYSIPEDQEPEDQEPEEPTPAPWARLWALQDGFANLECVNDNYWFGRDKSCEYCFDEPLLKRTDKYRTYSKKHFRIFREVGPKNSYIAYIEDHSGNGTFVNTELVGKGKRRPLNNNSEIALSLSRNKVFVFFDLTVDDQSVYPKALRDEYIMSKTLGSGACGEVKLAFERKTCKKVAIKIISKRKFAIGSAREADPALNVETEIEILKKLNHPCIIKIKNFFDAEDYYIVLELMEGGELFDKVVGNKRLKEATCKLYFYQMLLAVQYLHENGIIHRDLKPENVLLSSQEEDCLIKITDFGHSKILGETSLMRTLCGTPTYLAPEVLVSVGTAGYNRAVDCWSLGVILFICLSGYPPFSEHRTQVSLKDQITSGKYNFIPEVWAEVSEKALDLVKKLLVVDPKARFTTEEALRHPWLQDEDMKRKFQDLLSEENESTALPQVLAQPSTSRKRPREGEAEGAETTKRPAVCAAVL

[44] = target: Vascular endothelial growth factor receptor 3 (Homo sapiens) (UniProt P35916); assay: FLT4 DiscoveRx kinase panel; details: Compound concentration 1.0 uM
[45] = target: T1, Mitotic checkpoint serine/threonine-protein kinase BUB1; assay: Abrogation of histone H2A-Thr120 phosphorylation
Target sequence in this assay (O43683 whole entry): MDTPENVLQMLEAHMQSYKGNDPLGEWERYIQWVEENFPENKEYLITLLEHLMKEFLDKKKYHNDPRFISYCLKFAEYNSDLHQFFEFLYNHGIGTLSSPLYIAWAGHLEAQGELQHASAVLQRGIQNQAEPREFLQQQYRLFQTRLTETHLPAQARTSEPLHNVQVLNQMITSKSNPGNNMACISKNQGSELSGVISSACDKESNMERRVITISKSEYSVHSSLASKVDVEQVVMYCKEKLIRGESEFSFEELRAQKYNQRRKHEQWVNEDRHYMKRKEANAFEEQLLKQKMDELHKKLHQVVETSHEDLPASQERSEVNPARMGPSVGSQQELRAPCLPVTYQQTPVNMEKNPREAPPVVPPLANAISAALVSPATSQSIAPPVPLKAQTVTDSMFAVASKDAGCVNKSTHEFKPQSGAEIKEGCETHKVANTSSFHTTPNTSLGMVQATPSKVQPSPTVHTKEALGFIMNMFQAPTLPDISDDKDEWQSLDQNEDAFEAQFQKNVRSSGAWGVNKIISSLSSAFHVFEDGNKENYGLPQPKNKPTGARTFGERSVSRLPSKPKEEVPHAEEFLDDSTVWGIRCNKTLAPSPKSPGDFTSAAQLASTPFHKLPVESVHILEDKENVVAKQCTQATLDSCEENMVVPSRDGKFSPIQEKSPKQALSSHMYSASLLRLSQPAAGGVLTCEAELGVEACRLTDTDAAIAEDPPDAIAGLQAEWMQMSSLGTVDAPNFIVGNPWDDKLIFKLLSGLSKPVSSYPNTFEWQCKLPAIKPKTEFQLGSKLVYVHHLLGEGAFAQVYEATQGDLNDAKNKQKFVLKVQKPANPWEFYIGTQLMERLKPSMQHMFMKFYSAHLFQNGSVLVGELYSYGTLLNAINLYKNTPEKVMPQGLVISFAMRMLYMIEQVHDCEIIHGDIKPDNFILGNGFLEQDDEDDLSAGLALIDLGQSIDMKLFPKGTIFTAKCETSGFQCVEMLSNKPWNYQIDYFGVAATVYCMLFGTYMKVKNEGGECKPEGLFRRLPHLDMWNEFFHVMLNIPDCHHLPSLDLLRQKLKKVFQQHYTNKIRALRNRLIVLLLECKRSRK

[46] = target: Adenosine receptor A2a (Homo sapiens) (UniProt P29274); details: Compound concentration 10.0 uM
[47] = target: Serine/threonine-protein kinase Nek9 (Homo sapiens) (UniProt Q8TD19); assay: NEK9 DiscoveRx kinase panel; details: Compound concentration 1.0 uM
[48] = target: Cyclin-dependent kinase 16 (Homo sapiens) (UniProt Q00536); assay: PCTK1 DiscoveRx kinase panel; details: Compound concentration 1.0 uM

For COc1cnccc1Nc1nc(-c2nn(Cc3c(F)cc(OCCO)cc3F)c3ccccc23)ncc1OC, the inhibition [1] was 3.66%, the residual activity [2] was 100% and the residual activity [3] was 97%. It also gave a residual activity [4] of 100%, a residual activity [5] of 79% and a residual activity [6] of 99%. For the same compound, the residual activity [7] was 99%, the residual activity [8] was 100% and the inhibition [9] was 4%. The “Cell Proliferation IC50” value [10] was 1.2 µM, the “Cell Proliferation IC50” value [11] was 1.1 µM and the residual activity [12] was 81%. For the same compound, the residual activity [13] was 65%, the inhibition [14] was 9% and the residual activity [15] was 56%. It also gave a residual activity [16] of 88%, a residual activity [17] of 88% and a residual activity [18] of 87%. For the same compound, the inhibition [19] was 32%, the residual activity [20] was 88% and the residual activity [21] was 100%. For the same compound, the residual activity [22] was 100%, the residual activity [23] was 100% and the residual activity [24] was 93%. For the same compound, the residual activity [25] was 90%, the residual activity [26] was 100% and the Kd [27] was 3.3 nM. It also gave a residual activity ([27]; Compound concentration 1.0 uM) of 0.05%, a residual activity [28] of 95% and a residual activity [29] of 100%. It also gave a residual activity [30] of 100%, a residual activity [31] of 77% and a residual activity [32] of 95%. The residual activity [33] was 63%, the residual activity [34] was 100% and the inhibition at 90 min, 10 µM [35] was 8% (not active). It also gave a residual activity [36] of 98%, a residual activity [37] of 95% and a residual activity [38] of 89%. For the same compound, the residual activity [39] was 96%, the inhibition [40] was -6.28% and the residual activity [41] was 100%. It also gave a residual activity [42] of 89%, a residual activity [43] of 100% and a residual activity [44] of 82%. For the same compound, the IC50 [45] was 29 nM (active), the inhibition [46] was 67% and the residual activity [47] was 82%. For the same compound, the residual activity [48] was 100%.
